Data on 3 compounds can be found in patent publication US20220251085A1, “CYSTEINE BINDING COMPOSITIONS AND METHODS OF USE THEREOF” (University of Virginia Patent Foundation, priority 2019, published 2022).

Data set [1] in a line: HPLC assay for profiling solution reactivity and stability of purine inhibitors. The class given is physicochemical. To be noted: N7 versus N9 tautomer, on ice 6 h. How it is done: HPLC assay for profiling solution reactivity and stability of purine inhibitors—The following reagents were prepared and stored on ice prior to use. 0.1 M solution of caffeine in acetonitrile, 1.0 M solution of amino acid mimetic (butanethiol), tetramethylguanidine (TMG), 1 M HOAc in ACN and 10 mM solution of purine fragment in ACN mixture. 500 μL of fragment solution were transferred to a dram vial on ice. To the mixture, 5.5 μL of TMG and 5.5 μL of respective amino acid mimetic were added and solutions were stirred on ice for 6 h. To monitor reactivity, 50 μL aliquots were removed at indicated time points and quenched with 10 μL of a 1:1 mixture of caffeine and HOAc. Samples were injected (1 μL) and analyzed by reverse-phase HPLC on a Shimadzu 1100 Series spectrometer (Shimadzu Corporation, Kyoto, Japan) with UV detection at 254 nm. Reaction progress was evaluated by monitoring consumption of starting material (purine fragment) normalized to caffeine standard. Chromatographic separation was performed using a Phenomenex Kinetex C18 column (2.6 μm, 50×4.6 mm; Phenomenex, Torrance, Calif., United States of America). Mobile phases A and B were composed of H2O+0.1% HOAc and ACN+0.1% HOAc, respectively. […] All purine fragment peak AUCs used for calculations were normalized to caffeine standard AUCs at respective time points to account for run-to-run variations by HPLC. […]

Data set [2] in a line: HPLC assay for profiling solution reactivity and stability of purine adduct fragments. The class given is physicochemical. Here is the method: HPLC assay for profiling solution reactivity and stability of purine adduct fragments: The following reagents were prepared and stored on ice prior to use. 0.1 M solution of caffeine in acetonitrile, 1.0 M solution of amino acid mimetic (butanethiol, n-butylamine, p-cresol, propionamide and butyric acid), tetramethylguanidine (TMG), 1 M HOAc in ACN and 10 mM solution of purine fragment (e.g., one of the purine adducts shown in Scheme 8, above) in ACN mixture. 500 μL of fragment solution (i.e. purified Pa-1 through Pa-6) were transferred to a dram vial on ice. To the mixture, 5.5 μL of TMG and 5.5 μL of respective amino acid mimetic were added and solutions were stirred on ice for 6 h. To monitor reactivity, 50 μL aliquots were removed at indicated time points and quenched with 10 μL of a 1:1 mixture of caffeine and HOAc. Samples were injected (1 μL) and analyzed by reverse-phase HPLC on a Shimadzu 1100 Series spectrometer with UV detection at 254 nm. Reaction progress was evaluated by monitoring consumption of starting material (purine fragment) normalized to caffeine standard. Chromatographic separation was performed using a Phenomenex Kinetex C18 column (2.6 μm, 50×4.6 mm). Mobile phases A and B were composed of H2O+0.1% HOAc and ACN+0.1% HOAc, respectively. […] All purine fragment peak AUCs used for calculations were normalized to caffeine standard AUCs at respective time points to account for run-to-run variations by HPLC. The amount of purine fragment consumed (% starting material) was plotted as a function of time.

The structures appear in SMILES notation.

With `O=S(=O)(c1ccc(F)cc1)n1cnc2c(Cl)nc(Cl)nc21` [Pi-14, 2,6-dichloro-9-((4-fluorophenyl)sulfonyl)-9H-purine], in data set [1], the reactivity for butanethiol result is recorded as “essentially equivalent reactivity”.

With `O=S(=O)(c1ccc(F)cc1)n1cnc2nc(Cl)nc(Cl)c21` [Pi-13, 2,6-dichloro-7-((4-fluorophenyl)sulfonyl)-7H-purine], the reactivity for butanethiol result in data set [1] is given as “essentially equivalent reactivity”.

Regarding `C#CCn1cnc2c(SCCCC)nc(Cl)nc21` [Pa-4, 6-(butylthio)-2-chloro-9-(prop-2-yn-1-yl)-9H-purine], in data set [2] (Pa-4 versus Pa-1, butanethiol), the “reactivity against nucleophiles, N9 versus N7 tautomer” value is reported as “appears to be more reactive against nucleophiles”. Also, the “reactivity of 2-halogen, 6-substituted versus 6-halogen, 2-substituted” value in data set [2] (Pa-4 versus Pa-3, butanethiol) is listed as “higher reactivity”. Moreover, the reactivity with nucleophiles result in data set [2] (on ice 6 h) is “mild reactivity”.
